Assay [1] deals with Tyrosine-protein kinase SYK (Homo sapiens, UniProt P43405). Nature of the assay: Inhibition of recombinant N-terminus His6 tagged Syk (343 to 635) autophosphorylation expressed in insect Sf9 cells using [33P]ATP by scintillation counting.
Assay [2] concerns the target Tyrosine-protein kinase Lck (Homo sapiens, UniProt P06239). The assay is described as follows: Inhibition of Lck autophosphorylation using [33P]ATP by scintillation counting.
Assay [3] has as its target T1, Tyrosine-protein kinase TXK (Homo sapiens, UniProt P42681).
T1 sequence (P42681 whole entry): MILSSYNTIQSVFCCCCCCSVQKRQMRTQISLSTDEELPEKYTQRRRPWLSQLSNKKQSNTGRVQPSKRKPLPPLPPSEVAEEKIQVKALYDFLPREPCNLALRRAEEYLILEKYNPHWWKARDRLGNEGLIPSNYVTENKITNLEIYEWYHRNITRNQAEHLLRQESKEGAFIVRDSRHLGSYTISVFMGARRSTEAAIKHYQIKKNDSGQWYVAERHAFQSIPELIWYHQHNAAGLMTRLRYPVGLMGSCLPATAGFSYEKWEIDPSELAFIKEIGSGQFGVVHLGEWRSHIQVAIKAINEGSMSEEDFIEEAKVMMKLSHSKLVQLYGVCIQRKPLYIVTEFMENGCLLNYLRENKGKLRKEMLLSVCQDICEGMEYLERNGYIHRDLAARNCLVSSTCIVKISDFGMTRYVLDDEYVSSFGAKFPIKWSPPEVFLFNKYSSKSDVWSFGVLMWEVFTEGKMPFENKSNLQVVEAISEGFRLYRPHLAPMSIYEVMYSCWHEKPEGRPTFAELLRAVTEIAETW
The assay is described as follows: Inhibition of Txk autophosphorylation using [33P]ATP by scintillation counting.

Assay [4] has as its target T2, Tyrosine-protein kinase ITK/TSK (Homo sapiens, UniProt Q08881).
T2 sequence (Q08881 whole entry): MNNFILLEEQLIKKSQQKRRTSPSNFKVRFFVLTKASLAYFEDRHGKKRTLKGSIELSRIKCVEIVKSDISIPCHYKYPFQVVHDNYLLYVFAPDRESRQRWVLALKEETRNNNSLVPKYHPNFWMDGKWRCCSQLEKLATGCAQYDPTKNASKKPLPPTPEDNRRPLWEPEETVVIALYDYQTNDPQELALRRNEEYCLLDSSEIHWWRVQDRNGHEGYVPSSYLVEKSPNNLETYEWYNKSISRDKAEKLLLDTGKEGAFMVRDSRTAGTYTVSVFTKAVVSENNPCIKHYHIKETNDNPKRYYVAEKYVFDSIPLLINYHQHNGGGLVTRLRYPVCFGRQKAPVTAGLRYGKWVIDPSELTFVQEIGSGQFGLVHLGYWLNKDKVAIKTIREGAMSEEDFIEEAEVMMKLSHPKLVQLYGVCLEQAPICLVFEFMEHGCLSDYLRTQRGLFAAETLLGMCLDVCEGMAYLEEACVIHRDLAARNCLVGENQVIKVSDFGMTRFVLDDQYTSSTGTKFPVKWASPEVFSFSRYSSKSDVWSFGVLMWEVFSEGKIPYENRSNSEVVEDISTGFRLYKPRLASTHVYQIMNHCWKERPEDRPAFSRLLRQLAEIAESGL
Nature of the assay: Inhibition of recombinant N-terminus His6 tagged Itk (357-620) autophosphorylation expressed in insect Sf9 cells using [33P]ATP by scintillation counting.

Chain of Tyrosine-protein kinase Lck (P06239 whole entry): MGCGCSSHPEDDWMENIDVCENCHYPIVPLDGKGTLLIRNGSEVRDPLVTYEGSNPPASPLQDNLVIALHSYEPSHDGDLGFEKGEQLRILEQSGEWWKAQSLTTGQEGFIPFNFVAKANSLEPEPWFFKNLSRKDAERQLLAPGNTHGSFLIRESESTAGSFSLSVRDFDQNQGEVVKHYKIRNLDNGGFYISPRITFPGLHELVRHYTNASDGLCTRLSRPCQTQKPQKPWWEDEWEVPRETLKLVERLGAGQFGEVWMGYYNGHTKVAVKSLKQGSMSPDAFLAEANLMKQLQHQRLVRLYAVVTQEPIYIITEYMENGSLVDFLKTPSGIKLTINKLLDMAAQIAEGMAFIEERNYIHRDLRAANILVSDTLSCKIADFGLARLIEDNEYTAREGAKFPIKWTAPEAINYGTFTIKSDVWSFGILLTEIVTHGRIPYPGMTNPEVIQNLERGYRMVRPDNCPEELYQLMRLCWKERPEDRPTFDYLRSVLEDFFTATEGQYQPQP

By IC50 is commonly meant the concentration needed to halve the response being measured. Take `CCC(O)(CC)c1ccc2cc(-c3n[nH]c4ccsc34)[nH]c2c1`: the results for the IC50 in assay [1], in assay [2] and in assay [3] were 186 nM, 1100 nM and 66.5 nM, respectively.
Taken in the same sequence, the figures for `CCC(O)(CC)c1ccc2cc(-c3n[nH]c4cc(-c5ccccc5)sc34)[nH]c2c1` were 2470 nM, 203 nM and 441 nM.
Regarding `CC(C)(O)c1ccc2cc(-c3n[nH]c4ccsc34)[nH]c2c1`, the IC50 in assay [4] turned out to be 1.9 nM; in assay [2], 63.9 nM; in assay [3], 73.8 nM.
`Oc1ccc2nc(-c3n[nH]c4ccccc34)[nH]c2c1`: the IC50 in assay [4] was 200 nM.
For `CCC(O)(CC)c1ccc2cc(-c3n[nH]c4cc(C(F)F)sc34)[nH]c2c1`, the IC50 in assay [2] was 39.2 nM; in assay [3] it was 77.5 nM.
Turning to `CCC(O)(CC)c1ccc2c(-c3ccc(OC)cc3)c(-c3n[nH]c4ccsc34)[nH]c2c1`, the values for the IC50 in assay [1], in assay [2] and in assay [3] were 939 nM, 3180 nM and 241 nM, respectively.
Taken in the same sequence, the figures for `CCC(O)(CC)c1cc(OCCN2CCOCC2)c2cc(-c3n[nH]c4ccsc34)[nH]c2c1` were 287 nM, 162 nM and 55.7 nM.

These data come from ChEMBL document CHEMBL2016436, “X-ray crystallographic structure-based design of selective thienopyrazole inhibitors for interleukin-2-inducible tyrosine kinase” (Bioorg Med Chem Lett, 2012).
